Values after ≈ are worked out from the molar mass of the structure shown.
These compounds were tested on M. tuberculosis H37Rv growth inhibition (assay: Mycobacterium tuberculosis H37Rv growth inhibition, putative kinase inhibitor library, confirmatory dose response (AID 2842);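 note: bacteria incubated one week before Alamar blue readout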).
For `CC(C)COc1ccc(S(=O)(=O)Nc2ccc3c(c2)C(=O)Nc2ccccc2O3)cc1`, the IC90 was 6.99 µg/mL (≈ 15.9 µM).
`Cc1ccc2nc(NNC(=O)c3nc4ccccc4s3)sc2c1` gave an IC90 of 6.73 µg/mL (≈ 19.8 µM).
For `O=C(Nc1nnc(-c2ccco2)o1)c1ccc(Oc2ccccc2)cc1`, the IC90 was < 0.2 µg/mL.
Work on `COc1cc2ccccc2cc1C(=O)Nc1nnc(-c2ccc(F)cc2)o1` yielded an IC90 of 5.59 µg/mL (≈ 15.4 µM).
In the case of `COc1ccc2sc(Nc3nc(-c4ccccn4)cs3)nc2c1`, the IC90 is reported as 1.59 µg/mL (≈ 4.67 µM).
For `COc1cccc(C(=O)Nc2nc3c(s2)CCc2ccccc2-3)c1`, the IC90 was 11.3 µg/mL (≈ 33.6 µM).
With `O=C(c1ccco1)N(CCCn1ccnc1)c1nc2ccc(Cl)cc2s1` the IC90 was 0.89 µg/mL (≈ 2.3 µM).
In the case of `Cc1ccc(-c2nnc(NC(=O)c3ccccc3F)o2)c(C)c1`, the IC90 is reported as 1.31 µg/mL (≈ 4.21 µM).
Work on `Cc1c(Cl)ccc2sc(N(CCCn3ccnc3)C(=O)COc3ccccc3)nc12` yielded an IC90 of 3.05 µg/mL (≈ 6.92 µM).
`CCCC(=O)Nc1nnc(-c2ccc(Cl)s2)o1` gave an IC90 of 27.2 µg/mL (≈ 100 µM).
Compound `CCc1ccc(-c2nnc3c4cc5c(cc4n(Cc4ccc(C)cc4)cc2-3)OCCO5)cc1` has an IC90 of 15.3 µg/mL (≈ 35 µM).
With `N#C/C(=C(\O)c1ccc2c(c1)OCCO2)c1nc2ccccc2s1` the IC90 was 37.7 µg/mL (≈ 112 µM).
With `COc1ccc(C(=O)N(CCCn2ccnc2)c2nc3c(C)ccc(C)c3s2)cc1OC` the IC90 was 17 µg/mL (≈ 37.7 µM).
For `O=C(Nc1nnc(-c2ccncc2)o1)c1ccc(F)cc1`, the IC90 was 3.23 µg/mL (≈ 11.4 µM).
Work on `COC(=O)c1ccc(NC(=O)CSc2nc(-c3ccc(C)cc3)ns2)cc1` yielded an IC90 of 21.3 µg/mL (≈ 53.4 µM).
`OCCN1CCN(c2nc(Nc3cccc(Cl)c3)c3cnn(-c4ccccc4)c3n2)CC1` showed an IC90 of 0.73 µg/mL (≈ 1.62 µM).
Work on `COc1ccc(CNc2nccn(-c3cc(C)c(Cl)cc3OC)c2=O)cc1` yielded an IC90 of 18.1 µg/mL (≈ 46.8 µM).
With `O=C(Nc1nnc(-c2cc(Cl)ccc2Cl)o1)c1nc2ccccc2s1` the IC90 was 10.5 µg/mL (≈ 26.7 µM).
For `Cc1ccc(-c2nnc(NC(=O)c3ccc(Cl)cc3Cl)o2)c(C)c1`, the IC90 was 4.12 µg/mL (≈ 11.4 µM).
Work on `O=C(c1cccs1)N(CCCn1ccnc1)c1nc2ccccc2s1` yielded an IC90 of 6 µg/mL (≈ 16.3 µM).
`Cc1cccc2nc(NC(=O)c3ccc(Oc4ccccc4)cc3)sc12` gave an IC90 of 8.53 µg/mL (≈ 23.7 µM).
For `COC(=O)c1cc(C(=O)OC)cc(-n2c(C)cc(C(=O)CCl)c2C)c1`, the IC90 was 6.39 µg/mL (≈ 17.6 µM).
Work on `CC(=O)Nc1nnc(-c2ccc(C)cc2C)o1` yielded an IC90 of 23.9 µg/mL (≈ 103 µM).
With `Cc1nc2cc(NC(=O)Nc3ccc(Cl)cc3)ccc2n1-c1ccccc1` the IC90 was 6.97 µg/mL (≈ 18.5 µM).
`O=C(Nc1nnc(-c2cc(Cl)ccc2Cl)o1)c1ccc(Cl)cc1Cl` was tested, and the IC90 was 0.74 µg/mL (≈ 1.84 µM).
`CCOc1ccc(-c2nnc3c4cc5c(cc4n(Cc4cccc(OC)c4)cc2-3)OCCO5)cc1` gave an IC90 of 3.52 µg/mL (≈ 7.53 µM).
In the case of `O=C1C(Cl)=C(Nc2ccccc2O)C(=O)N1Cc1ccccc1`, the IC90 is reported as 5.45 µg/mL (≈ 16.6 µM).
Work on `O=C(CSc1nnc2ccc(-c3cccc([N+](=O)[O-])c3)nn12)Nc1cccc(C(F)(F)F)c1` yielded an IC90 of 3.34 µg/mL (≈ 7.04 µM).
Compound `COc1ccc(C)c2sc(NNC(=O)c3cccc(F)c3)nc12` has an IC90 of 32.6 µg/mL (≈ 98.4 µM).
With `O=C(Nc1nnc(C2=COCCO2)o1)c1cc(Cl)cc(Cl)c1` the IC90 was 53.7 µg/mL (≈ 157 µM).
`COc1ccccc1-c1nnc(NC(=O)c2ccc3c(c2)CCCC3)o1` gave an IC90 of 8.04 µg/mL (≈ 23 µM).
Work on `CCOc1ccc(C(=O)Nc2nnc(-c3ccccn3)o2)cc1` yielded an IC90 of 1.03 µg/mL (≈ 3.32 µM).
`COc1ccc(C(=O)Nc2nnc(-c3ccc(C)cc3C)o2)cc1` gave an IC90 of 23.6 µg/mL (≈ 72.9 µM).
Compound `Cc1cn2c3c(=O)[nH]c(=O)n(C)c3nc2n1CCCNc1ccccc1` has an IC90 of 3.69 µg/mL (≈ 10.5 µM).
`O=C(Nc1nnc(-c2ccc(Cl)s2)o1)c1ccc([N+](=O)[O-])o1` gave an IC90 of 0.85 µg/mL (≈ 2.49 µM).
Compound `COc1cc(OC)cc(C(=O)N(CCCn2ccnc2)c2nc3c(C)cc(C)cc3s2)c1` has an IC90 of 10.1 µg/mL (≈ 22.3 µM).
Compound `O=C(CSc1nnc(-c2ccncc2)o1)N1CCCCC1` has an IC90 of 14.2 µg/mL (≈ 46.7 µM).
With `COc1ccc(N2CC(c3nc4ccccc4n3Cc3ccccc3C)CC2=O)cc1` (configuration not stated) the IC90 was 20.1 µg/mL (≈ 48.8 µM).
Work on `O=C(Nc1nnc(-c2ccc(Br)cc2)o1)c1ccc(Cl)s1` yielded an IC90 of 1.87 µg/mL (≈ 4.86 µM).
Compound `COc1ccc(C(=O)NNc2nc3cc(C)cc(C)c3s2)cc1` has an IC90 of 38.8 µg/mL (≈ 118 µM).
Compound `CCS(=O)(=O)c1cccc(C(=O)Nc2nnc(-c3ccc(Br)cc3)o2)c1` has an IC90 of 7.76 µg/mL (≈ 17.8 µM).
For `CCCCc1ccc(NCCn2c(C)c(C)n3c4c(=O)[nH]c(=O)n(C)c4nc23)cc1`, the IC90 was 12.6 µg/mL (≈ 30.8 µM).
`Cc1ccc(-c2nnc3c4cc5c(cc4n(Cc4cccc(C)c4)cc2-3)OCCO5)cc1` showed an IC90 of 5.76 µg/mL (≈ 13.7 µM).
With `CCCCOc1ccc(C(=O)Nc2nnc(-c3ccco3)o2)cc1` the IC90 was 0.8 µg/mL (≈ 2.44 µM).
`Cc1ccc(C)c(-c2nnc(NC(=O)c3ccc(OC(C)C)cc3)o2)c1` was tested, and the IC90 was 33.4 µg/mL (≈ 95 µM).
`Cc1ccc2sc(NNC(=O)c3cc4ccccc4oc3=O)nc2c1C` gave an IC90 of 4.21 µg/mL (≈ 11.5 µM).
`O=C(Nc1nnc(-c2ccc(Br)cc2)o1)c1ccc(S(=O)(=O)N2CCOCC2)cc1` was tested, and the IC90 was 5.28 µg/mL (≈ 10.7 µM).
`CCc1cccc2sc(N(CCCn3ccnc3)C(=O)/C=C/c3cccs3)nc12` was tested, and the IC90 was 0.83 µg/mL (≈ 1.96 µM).
In the case of `O=C(Cc1cccc2ccccc12)Nc1nc(-c2ccc(Br)s2)cs1`, the IC90 is reported as 15.7 µg/mL (≈ 36.5 µM).
`CCOc1ccc(-c2nnc3c4cc5c(cc4n(Cc4ccccc4OC)cc2-3)OCO5)cc1` showed an IC90 of 9.22 µg/mL (≈ 20.3 µM).
In the case of `O=C(c1ccco1)N(CCCn1ccnc1)c1nc2c(F)cccc2s1`, the IC90 is reported as 3.11 µg/mL (≈ 8.4 µM).
With `COc1ccc(C(=O)N(CCCn2ccnc2)c2nc3c(C)c(C)ccc3s2)cc1OC` the IC90 was 14.2 µg/mL (≈ 31.5 µM).
`NNC(=O)c1ccc(-c2ccccc2Cl)o1` showed an IC90 of 3.96 µg/mL (≈ 16.7 µM).
Work on `c1ccc2sc(Nc3nc4cc5c(cc4s3)OCO5)nc2c1` yielded an IC90 of 18.6 µg/mL (≈ 56.9 µM).
With `Cc1ccc(C)c(N2CCN(C(=O)CCCCCn3c(=O)[nH]c4ccsc4c3=O)CC2)c1` the IC90 was 10.9 µg/mL (≈ 24 µM).
Compound `Cc1ccc2cc(CCNC(=S)NCCn3ccc4ccccc43)c(=O)[nH]c2c1` has an IC90 of 1.26 µg/mL (≈ 3.11 µM).
`O=C1Nc2ccccc2/C1=C/C(=O)c1ccc([N+](=O)[O-])cc1` gave an IC90 of 47.7 µg/mL (≈ 162 µM).
